Experimental data taken from patent publication US11976083B2, “Inhibitors of peptidylarginine deiminases” (Gilead Sciences, Inc., priority 2020, dated 2024).

These molecules were tested against T1, human PAD4 (Homo sapiens, UniProt Q9UM07) (assay: In vitro PAD4 BAEE biochemical assay). Conditions: BAEE substrate 3 mM, 5 nM PAD4, 2 mM calcium chloride; geometric mean of multiple experiments.
T1 construct: human PAD4 (NM_012387), A2-P663, was PCR amplified; His-SUMO (N, cleaved yes); made in house; host or cells: E. coli BL21(DE3)
T1 sequence (Q9UM07 2-663): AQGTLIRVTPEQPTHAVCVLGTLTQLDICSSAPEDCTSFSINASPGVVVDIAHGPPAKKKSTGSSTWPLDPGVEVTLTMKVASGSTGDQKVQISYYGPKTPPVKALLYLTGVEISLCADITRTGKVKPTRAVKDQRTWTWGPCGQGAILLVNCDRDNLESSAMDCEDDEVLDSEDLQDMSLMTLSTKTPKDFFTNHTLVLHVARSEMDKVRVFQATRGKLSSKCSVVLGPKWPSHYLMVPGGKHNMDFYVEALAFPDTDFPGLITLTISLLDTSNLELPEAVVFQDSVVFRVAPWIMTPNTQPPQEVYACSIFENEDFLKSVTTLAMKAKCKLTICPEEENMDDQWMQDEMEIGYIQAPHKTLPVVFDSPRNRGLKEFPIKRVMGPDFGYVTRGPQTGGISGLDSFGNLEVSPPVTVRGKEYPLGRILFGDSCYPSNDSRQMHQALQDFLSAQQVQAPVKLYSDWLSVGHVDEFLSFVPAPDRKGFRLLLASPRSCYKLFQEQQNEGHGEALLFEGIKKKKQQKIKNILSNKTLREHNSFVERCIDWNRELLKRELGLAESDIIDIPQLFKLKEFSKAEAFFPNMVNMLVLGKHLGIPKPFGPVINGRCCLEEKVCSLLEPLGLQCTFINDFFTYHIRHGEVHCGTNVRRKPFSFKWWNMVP
How it was run: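 Assay was run at 25 °C using 3 mM BAEE and 5 nM human PAD4 after a 30 min compound preincubation; ammonia produced over 2 h was quantified by OPA-derived fluorescence. Full inhibition was defined by 50 µM BB-Cl-Amidine, and IC50 came from variable-slope nonlinear regression.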

IC50 | Structure (SMILES)
32 nM | COc1cc(C(=O)N2C[C@H](N)[C@@H]3CC[C@H]2C3)cc2nc(-c3cc4ccc5nc4n3CCCCCc3ccc(Cl)nc3C(=O)N[C@@H]5C)n(C)c12 [Example 954, (2~{R})-17-[5-[(1~{S},4~{R}, 5~{R})-4-amino-2-azabicyclo [3.2.1]octane-2-carbonyl]-7-methoxy-1-methyl-benzimidazol-2-yl]-7-chloro-2-methyl-3,6,16,22-tetrazatetracyclo[14.5.2.0^ {5,10}.0^{19,23}]tricosa-1(21),5(10),6,8,17,19,22-heptaen-4-one]
22 nM | CO[C@@H]1CCN(C(=O)c2cc(F)c3c(c2)nc(-c2cc4ccc5nc4n2CC(F)(F)CCC[C@@H]2C[C@H]2C(=O)N[C@@H]5C)n3C2C[C@H]2F)C[C@@H]1N (stereo partly shown) [Example 745, (2~{R},5~{R},7~{R})-14-[5-[(3~{S},4~{R})-3-amino-4-methoxy-piperidine-1-carbonyl]-7-fluoro-1-[(1~{S},2~{R})-2-fluorocyclopropyl]benzimidazol-2-yl]-11,11-difluoro-2-methyl-3,13,19-triazatetracyclo [11.5.2.0^{5,7}.0^{16,20}]icosa-1(19),14,16(20),17-tetraen-4-one]
171 nM | COc1cc(C(=O)N[C@H]2CNCC[C@@H]2F)cc2nc(-c3cc4ccc5nc4n3CCCCCc3cnn(C)c3C(=O)N[C@@H]5C)n(C)c12 [Example 181, 2-[(2~{R})-2,6-dimethyl-4-oxo-3,6,7,15,21-pentazatetracyclo[13.5.2.0^{5,9}.0^{18,22}]docosa-1(21),5(9),7,16,18(22),19-hexaen-16-yl]-~{N}-[(3~{S},4~{S})-4-fluoro-3-piperidyl]-7-methoxy-1-methyl-benzimidazole-5-carboxamide]
20 nM | C[C@H]1NC(=O)[C@@H]2C[C@@]2(F)/C=C/CCCn2c(-c3nc4cc(C(=O)N5C[C@H](N)[C@@H]6CC[C@H]5C6)cc(F)c4n3C3CC3)cc3ccc1nc32 [Example 919, (2~{R},5~{S},7~{R},8~{E})-14-[5-[(1~{S},4~{R},5~{R})-4-amino-2-azabicyclo[3.2.1]octane-2-carbonyl]-1-cyclopropyl-7-fluoro-benzimidazol-2-yl]-7-fluoro-2-methyl-3,13,19-triazatetracyclo[11.5.2.0^ {5,7}.0^{16,20}]icosa-1(19),8,14,16(20),17-pentaen-4-one]
33 nM | CO[C@@H]1CCN(C(=O)c2ccc3c(c2)nc(-c2cc4ccc5nc4n2CCCCC[C@@H]2C[C@H]2C(=O)N[C@@H]5C)n3C2CC2)C[C@@H]1N [Example 691, (2~{R},5~{R},7~{R})-14-[5-[(3~{S},4~{R})-3-amino-4-methoxy-piperidine-1-carbonyl]-1-cyclopropyl-benzimidazol-2-yl]-2-methyl-3,13,19-triazatetracyclo[11.5.2.0^ {5,7}.0^{16,20}]icosa-1(19),14,16(20),17-tetraen-4-one]
50 nM | COc1cc(C(=O)N[C@H]2CNCC[C@@H]2F)cc2nc(-c3cc4ccc5nc4n3CCCCCCC(C)(C)C(=O)N[C@@H]5C)n(C)c12 [Example 178, ~{N}-[(3~{S},4~{S})-4-fluoro-3-piperidyl]-7-methoxy-1-methyl-2-[(11~{R})-8,8,11-trimethyl-9-oxo-1,10-diazatricyclo[10.5.2.0^{15,18}]nonadeca-12(19),13,15(18),16-tetraen-17-yl]benzimidazole-5-carboxamide]
97 nM | COc1cc(C(=O)N2CC[C@@H](OC(F)F)[C@@H](N)C2)cc2nc(-c3cc4ccc5nc4n3CCCCCc3ccc(Cl)nc3C(=O)N[C@@H]5C)n(C)c12 [Example 784, (2~{R})-17-[5-[(3~{S},4~{R})-3-amino-4-(difluoromethoxy)piperidine-1-carbonyl]-7-methoxy-1-methyl-benzimidazol-2-yl]-7-chloro-2-methyl-3,6,16,22-tetrazatetracyclo[14.5.2.0^ {5,10}.0^{19,23}]tricosa-1(21),5(10),6,8,17,19,22-heptaen-4-one]
29 nM | C[C@H]1NC(=O)c2nccnc2CCCCCn2c(-c3nc4cc(C(=O)N5C[C@H](N)[C@@H]6CC[C@H]5C6)cc(F)c4n3C3CC3)cc3ccc1nc32 [Example 485, (2~{R})-17-[5-[(1~{S),4~{R},5~{R})-4-amino-2-azabicyclo[3.2.1]octane-2-carbonyl]-1-cyclopropyl-7-fluoro-benzimidazol-2-yl]-2-methyl-3,6,9,16,22-pentazatetracyclo[14.5.2.0^{5,10}.0^{19, 23}]tricosa-1(22),5(10),6,8,17,19(23),20-heptaen-4-one]
41 nM | C[C@H]1NC(=O)[C@@H]2C[C@H]2CCCCCn2c(-c3nc4cc(C(=O)N[C@H]5CNCC[C@@H]5F)c(F)cc4n3CCOc3ccccn3)cc3ccc1nc32 [Example 434, 6-fluoro-~{N}-[(3~{S),4~{S})-4-fluoro-3-piperidyl]-2-[(2~{R},5~{R},7~{R})-2-methyl-4-oxo-3,13,19-triazatetracyclo[11.5.2.0^{5,7}.0^{16,20}]icosa-1(19),14,16(20),17-tetraen-14-yl]-1-[2-(2-pyridyloxy)ethyl]benzimidazole-5-carboxamide]
34 nM | C[C@H]1NC(=O)[C@H]2[C@H](CCCC(F)(F)Cn3c(-c4nc5cc(C(=O)N[C@H]6CNCC[C@@H]6F)c(F)cc5n4C4CC4)cc4ccc1nc43)C2(F)F [Example 391, 1-cyclopropyl-6-fluoro-~{N}-[(3~{S},4~{S})-4-fluoro-3-piperidyl]-2-[(2~{R},5~{R},7~{S})-6,6,11,11-tetrafluoro-2-methyl-4-oxo-3,13,19-triazatetracyclo[11.5.2.0^{5,7}.0^{16,20}]icosa-1(19),14,16(20),17-tetraen-14-yl]benzimidazole-5-carboxamide]
77 nM | COc1cc(C(=O)N2CCC[C@@H](N)C2)cc2nc(-c3cc4ccc5nc4n3CCCCCC(C)(C)C(=O)N[C@@H]5C)n(C)c12 [Example 58, (10~{R})-16-[5-[(3~{R})-3-aminopiperidine-1-carbonyl]-7-methoxy-1-methyl-benzimidazol-2-yl]-7,7,10-trimethyl-1,9,18-triazatricyclo[9.5.2.0^{14,17}]octadeca-11(18),12,14(17),15-tetraen-8-one]
156 nM | COc1cc(C(=O)N2CC[C@@H](OC(F)F)[C@@H](N)C2)cc2nc(-c3cc4ccc5nc4n3CCCCCc3cnccc3C(=O)N[C@@H]5C)n(C)c12 [Example 492, (2~{R})-17-[5-[(3~{S}, 4~{R})-3-amino-4-(difluoromethoxy)piperidine-1-carbonyl]-7-methoxy-1-methyl-benzimidazol-2-yl]-2-methyl-3,8,16,22-tetrazatetracyclo [14.5.2.0^{5,10}.0^{19,23}] tricosa-1(22),5(10), 6,8,17,19(23),20-heptaen-4-one]
72 nM | COc1cc(C(=O)N2CCC[C@@H](N)C2)cc2nc(-c3cc4ccc5nc4n3CCCCCCCC(=O)N[C@@H]5C)n(C3CC3)c12 [Example 229, (11~{R})-17-[5-[(3~{R})-3-aminopiperidine-1-carbonyl]-1-cyclopropyl-7-methoxy-benzimidazol-2-yl]-11-methyl-1,10,19-triazatricyclo[10.5.2.0^{15,18}]nonadeca-12(19),13,15(18),16-tetraen-9-one]
